Data on 20 sequences can be found in patent US12280148B2, “Composition for promoting extracellular vesicle production containing peptide derived from noxa protein and method for producing extracellular vesicles by using same” (Exocalibre Therapeutics Co., Ltd., priority 2020, dated 2025).

Common to all, as to format: cell-based, human
For one experiment, the system named is HeLa cell line. Description: Production of extracellular vesicles, observed by optical microscope (bright field). On the procedure: After the HeLa cell line was cultured in a 6-well plate, the culture was removed, and then the HeLa cell line was treated with the solution in Example 1.
The control group was not treated with any peptide, and the experiment group was treated with eMTDΔ4 peptide of SEQ ID NO: 2 (final concentration: 20 μM). After 10 minutes, the generation of extracellular vesicles was observed by an optical microscope (bright field), and the observation results are shown in FIG. 1.
Extracellular vesicle production was carried out by the experimental method of Experimental Example 2-1 using the R(8):MTD peptide of SEQ ID NO: 4 and the solutions of Example 1 and Comparative Examples 1 to 18, and the results are shown in FIGS. 2A to 2S.
Extracellular vesicle production was carried out by the experimental method of Example 2-1 using the R(8):MTD peptide of SEQ ID NO: 4 and the solutions of Examples 1 to 3 on Table 3, and the results are shown in FIGS. 3A to 3C.

In experiment [1] the test system is 293-HEK cell line. Description: Extracellular vesicle output quantified by Bradford solution. On the procedure:
The 293-HEK cell line was cultured in a 6-well plate at a rate of 2×10^5 cells/mL, and the next day, the cell line was treated with the solution of Example 1 and a peptide of any one of SEQ ID NOs: 1 to 21. […], the solution was removed, followed by centrifugation at an RCF of 12000, and the extracellular vesicles were quantified using the supernatant by Bradford solution.

In experiment [2] the test system is 293-HEK cell line. Description: Extracellular vesicle size and quantity by Nanoparticle Tracking Analysis (NTA). As to conditions: 50-fold diluted, solution of Example 1, peptide 20 μm, after 20 minutes. On the procedure:
After the 293-HEK cell line was cultured to 90% confluency (about 2×10^7 cells) in a 10-cm culture dish, the culture was removed, and the cells were treated with the eMTDΔ4 peptide (final concentration: 20 μm), which has been dissolved in 5 ml of the solution of Example 1. After 20 minutes, the solution was removed, followed by centrifugation at an RCF of 12000, and then the size and quantity of extracellular vesicles were measured using a Nanoparticle Tracking Analysis (NTA) system (Nanosight LM10, Malvern Instruments).

Setting [3] is: solution of Example 1, peptide 10 μM.
[4] abbreviates: solution of Example 1, peptide 20 μM.
Where [5] appears, read: solution of Example 1, peptide 40 μM.

As for RRRRRRRRKLLNLISKLF [R(8):MTD], the “generation of extracellular vesicles” value in the experiment on HeLa cell line (solution of Example 1 (250 mM sucrose), peptide final concentration 20 μM, after 10 minutes) was “many extracellular vesicle particles were generated”; in the experiment with HeLa cell line (solutions of Comparative Examples 1 to 18 (FIGS. 2B to 2S)), “extracellular vesicle particles were not generated”; in the experiment on HeLa cell line (solutions of Examples 1 to 3, excess of glucose or sorbitol instead of sucrose), “extracellular vesicles were well formed”.
As to “KLLNLWSLLFGYTIK (TU103) [Noxa protein-derived derivative peptide, 15aa]”, the “Amount of proteins contained in extracellular vesicles” value (shortened to “Amount of proteins contained”) with 293-HEK cell line [1] (setting [3]) worked out at 0.75 µg/µL; in the experiment with 293-HEK cell line [1] (setting [4]), 0.40 µg/µL; with 293-HEK cell line [1] (setting [5]) it was 0.55 µg/µL.
For “KLLNLWSLLKGYTIK (TU124) [Noxa protein-derived derivative peptide, 15aa]”, the “Amount of proteins contained” value with 293-HEK cell line [1] (setting [3]) stood at 3.30 µg/µL; with 293-HEK cell line [1] (setting [4]) it was 5.02 µg/µL; with 293-HEK cell line [1] (setting [5]), 6.24 µg/µL.
Take “KLNFAEFLRNLISKLF (TU166) [Noxa protein-derived derivative peptide, 16aa]”: the “Amount of proteins contained” value with 293-HEK cell line [1] (setting [3]) stood at 5.77 µg/µL; in the experiment with 293-HEK cell line [1] (setting [4]), 6.68 µg/µL; in the experiment with 293-HEK cell line [1] (setting [5]), 8.10 µg/µL.
Regarding KLLNLISKLF [MTD], in the experiment on 293-HEK cell line [2], the “Quantity of extracellular vesicles” value stood at 8.01e+08 ± 1.75e+07 mL⁻¹. For the same sequence, the “Amount of proteins contained” value in the experiment with 293-HEK cell line [1] (setting [3]) worked out at 0.80 µg/µL; in the experiment on 293-HEK cell line [1] (setting [4]) it was 1.17 µg/µL; in the experiment on 293-HEK cell line [1] (setting [5]) it was 2.87 µg/µL.
Regarding “AHFLRKLLNLISKLF (TU149) [Noxa protein-derived derivative peptide, 15aa]”, the figures for the “Amount of proteins contained” value with 293-HEK cell line [1] (setting [3]), in the experiment with 293-HEK cell line [1] (setting [4]) and with 293-HEK cell line [1] (setting [5]) were 1.71 µg/µL, 2.00 µg/µL and 2.57 µg/µL, respectively.
On to “QFAQYLRNLISKLF (TU155) [Noxa protein-derived derivative peptide, 14aa]”, for which the “Amount of proteins contained” value with 293-HEK cell line [1] (setting [3]) worked out at 1.56 µg/µL; in the experiment on 293-HEK cell line [1] (setting [4]), 1.77 µg/µL; with 293-HEK cell line [1] (setting [5]), 2.85 µg/µL.
In the case of “AEYRKLLNLISKLF (TU128) [Noxa protein-derived derivative peptide, 14aa]”, the “Amount of proteins contained” value amounted to 3.86 µg/µL in the experiment on 293-HEK cell line [1] (setting [3]), 5.29 µg/µL with 293-HEK cell line [1] (setting [4]) and 7.25 µg/µL in the experiment on 293-HEK cell line [1] (setting [5]).
With “MEWWYLLKLLNLISKLF (TU104) [Noxa protein-derived derivative peptide, 17aa]”, the “Amount of proteins contained” value in the experiment with 293-HEK cell line [1] (setting [3]) is 0.62 µg/µL; with 293-HEK cell line [1] (setting [4]), 0.75 µg/µL; in the experiment with 293-HEK cell line [1] (setting [5]), 1.02 µg/µL.
With “KWYAKLLNLISKLF (TU114) [Noxa protein-derived derivative peptide, 14aa]”, in the experiment on 293-HEK cell line [2], the “Quantity of extracellular vesicles” value amounted to 8.75e+08 ± 9.27e+07 mL⁻¹.
Take “LRSLRDKLLNLISKLF (TU107) [Noxa protein-derived derivative peptide, 16aa]”: the “Amount of proteins contained” value was 5.58 µg/µL in the experiment on 293-HEK cell line [1] (setting [3]), 6.69 µg/µL in the experiment with 293-HEK cell line [1] (setting [4]) and 7.45 µg/µL in the experiment with 293-HEK cell line [1] (setting [5]).
Regarding “YWLPLRKLLNLISKLF (TU146) [Noxa protein-derived derivative peptide, 16aa]”, the “Amount of proteins contained” value with 293-HEK cell line [1] (setting [3]) came out at 2.01 µg/µL; with 293-HEK cell line [1] (setting [4]) it was 2.89 µg/µL; with 293-HEK cell line [1] (setting [5]), 3.50 µg/µL.
Consider “LNFKWYSLLNLISKLF (TU172) [Noxa protein-derived derivative peptide, 16aa]”, for which the entries for the “Amount of proteins contained” value with 293-HEK cell line [1] (setting [3]), with 293-HEK cell line [1] (setting [4]) and in the experiment with 293-HEK cell line [1] (setting [5]) were 0.83 µg/µL, 0.44 µg/µL and 0.59 µg/µL, respectively.
For the sequence “AEYSRKLLNLISKLF (TU135) [Noxa protein-derived derivative peptide, 15aa]”, the “Amount of proteins contained” value in the experiment with 293-HEK cell line [1] (setting [3]) was 1.81 µg/µL; in the experiment on 293-HEK cell line [1] (setting [4]) it was 4.41 µg/µL; in the experiment with 293-HEK cell line [1] (setting [5]), 6.54 µg/µL.
Turning to “AFFLRKLLNLISKLF (TU151) [Noxa protein-derived derivative peptide, 15aa]”, the “Amount of proteins contained” value in the experiment with 293-HEK cell line [1] (setting [3]) was found to be 1.51 µg/µL; in the experiment on 293-HEK cell line [1] (setting [4]), 1.30 µg/µL; in the experiment with 293-HEK cell line [1] (setting [5]), 1.40 µg/µL.
In the same order, the values of “KLNFRQKLARLLTKLF (TU171) [Noxa protein-derived derivative peptide, 16aa]” are 2.64 µg/µL, 3.62 µg/µL and 5.30 µg/µL.
With “RPARPARGGKLLNLISKLF (TU17) [Noxa protein-derived derivative peptide, 19aa]”, in the experiment on 293-HEK cell line [2], the “Quantity of extracellular vesicles” value amounted to 7.95e+08 ± 7.15e+07 mL⁻¹.
Consider “GLKSLRKLLNLISKLF (TU111) [Noxa protein-derived derivative peptide, 16aa]”, for which the “Amount of proteins contained” value in the experiment on 293-HEK cell line [1] (setting [3]) came to 4.17 µg/µL; with 293-HEK cell line [1] (setting [4]) it was 4.98 µg/µL; with 293-HEK cell line [1] (setting [5]) it was 6.44 µg/µL.
Turning to “KVSIFLKNLISKLF (TU156) [Noxa protein-derived derivative peptide, 14aa]”, the “Amount of proteins contained” value in the experiment on 293-HEK cell line [1] (setting [3]) worked out at 1.17 µg/µL; in the experiment on 293-HEK cell line [1] (setting [4]) it was 1.55 µg/µL; in the experiment on 293-HEK cell line [1] (setting [5]), 3.93 µg/µL.
For the sequence “KLNFRLGLRSLREKLF (TU168) [Noxa protein-derived derivative peptide, 16aa]”, the “Amount of proteins contained” value with 293-HEK cell line [1] (setting [3]) amounted to 0.77 µg/µL; in the experiment with 293-HEK cell line [1] (setting [4]), 2.17 µg/µL; in the experiment on 293-HEK cell line [1] (setting [5]), 3.74 µg/µL.
